Patent US20230085307A1, “PYRIDAZINONE COMPOUND AND HERBICIDE” (NISSAN CHEMICAL CORPORATION, priority 2019, published 2023)

Assays:
barnyard grass [1] = assay: Test Example 3: herbicidal effect by foliage application, Wagner pot (Table 18, symbol H); format: in vivo, barnyard grass (Echinochloa crus-galli); conditions: amount of applied herbicide 320 g/ha
How it was run: (§1)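 Plants were sown in alluvial soil held under 0.1–0.5 cm standing water and grown 14 days in a greenhouse at 25–30 °C. An emulsifiable formulation, water-diluted to the set dose, was then sprayed onto the foliage, and effects were scored three weeks later using previously defined criteria.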

Chinese sprangletop = assay: Test Example 3: herbicidal effect by foliage application, Wagner pot (Table 18, symbol D); format: in vivo, chinese sprangletop (Leptochloa chinensis); conditions: amount of applied herbicide 320 g/ha
How it was run: as §1

rice flat sedge = assay: Test Example 3: herbicidal effect by foliage application, Wagner pot (Table 18, symbol E); format: in vivo, rice flat sedge (Cyperus iria); conditions: amount of applied herbicide 320 g/ha
How it was run: as §1

southern crabgrass [2] = assay: Test Example 4: herbicidal effect by soil treatment (Table 19, symbol F); format: in vivo, southern crabgrass (Digitaria ciliaris); conditions: amount of applied herbicide 320 g/ha
How it was run: (§2)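 Scoring uses the grading scale of an earlier test, three weeks post-application. Treatment consists of spraying a diluted emulsion formulation across the surface of sterilized diluvial soil in which seeds are buried near 1.5 cm deep; boxes are kept in a greenhouse between 25° C. and 30° C.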

green foxtail [3] = assay: Test Example 4: herbicidal effect by soil treatment (Table 19, symbol G); format: in vivo, green foxtail (Setaria viridis); conditions: amount of applied herbicide 320 g/ha
How it was run: as §2

barnyard grass [4] = assay: Test Example 4: herbicidal effect by soil treatment (Table 19, symbol H); format: in vivo, barnyard grass (Echinochloa crus-galli); conditions: amount of applied herbicide 320 g/ha
How it was run: as §2

wild oat [5] = assay: Test Example 4: herbicidal effect by soil treatment (Table 19, symbol I); format: in vivo, wild oat (Avena fatua); conditions: amount of applied herbicide 320 g/ha
How it was run: as §2

blackgrass [6] = assay: Test Example 4: herbicidal effect by soil treatment (Table 19, symbol J); format: in vivo, blackgrass (Alopecurus myosuroides); conditions: amount of applied herbicide 320 g/ha
How it was run: as §2

Italian ryegrass [7] = assay: Test Example 4: herbicidal effect by soil treatment (Table 19, symbol K); format: in vivo, Italian ryegrass (Lolium multiflorum); conditions: amount of applied herbicide 320 g/ha
How it was run: as §2

windgrass [8] = assay: Test Example 4: herbicidal effect by soil treatment (Table 19, symbol L); format: in vivo, windgrass (Apera spica-venti); conditions: amount of applied herbicide 320 g/ha
How it was run: as §2

velvetleaf [9] = assay: Test Example 4: herbicidal effect by soil treatment (Table 19, symbol M); format: in vivo, velvetleaf (Abutilon theophrasti); conditions: amount of applied herbicide 320 g/ha
How it was run: as §2

redroot pigweed [10] = assay: Test Example 4: herbicidal effect by soil treatment (Table 19, symbol N); format: in vivo, redroot pigweed (Amaranthus retroflexus); conditions: amount of applied herbicide 320 g/ha
How it was run: as §2

lambsquarters [11] = assay: Test Example 4: herbicidal effect by soil treatment (Table 19, symbol O); format: in vivo, lambsquarters (Chenopodium album); conditions: amount of applied herbicide 320 g/ha
How it was run: as §2

chickweed [12] = assay: Test Example 4: herbicidal effect by soil treatment (Table 19, symbol P); format: in vivo, common chickweed (Stellaria media); conditions: amount of applied herbicide 320 g/ha
How it was run: as §2

persian speedwell [13] = assay: Test Example 4: herbicidal effect by soil treatment (Table 19, symbol R); format: in vivo, Persian speedwell (Veronica persica); conditions: amount of applied herbicide 320 g/ha
How it was run: as §2

southern crabgrass [14] = assay: Test Example 5: herbicidal effect by foliage application, plastic box (Table 20, symbol F); format: in vivo, southern crabgrass (Digitaria ciliaris); conditions: foliage application, AAH 320 g/ha, evaluated three weeks after application
How it was run: (§3)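 Post-emergence foliar test in sterilized diluvial soil. Compound applied as water-diluted emulsion at a predetermined rate to 14-day-old plants; evaluation at three weeks.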

green foxtail [15] = assay: Test Example 5: herbicidal effect by foliage application, plastic box (Table 20, symbol G); format: in vivo, green foxtail (Setaria viridis); conditions: foliage application, AAH 320 g/ha, evaluated three weeks after application
How it was run: as §3

barnyard grass [16] = assay: Test Example 5: herbicidal effect by foliage application, plastic box (Table 20, symbol H); format: in vivo, barnyard grass (Echinochloa crus-galli); conditions: foliage application, AAH 320 g/ha, evaluated three weeks after application
How it was run: as §3

wild oat [17] = assay: Test Example 5: herbicidal effect by foliage application, plastic box (Table 20, symbol I); format: in vivo, wild oat (Avena fatua); conditions: foliage application, AAH 320 g/ha, evaluated three weeks after application
How it was run: as §3

blackgrass [18] = assay: Test Example 5: herbicidal effect by foliage application, plastic box (Table 20, symbol J); format: in vivo, blackgrass (Alopecurus myosuroides); conditions: foliage application, AAH 320 g/ha, evaluated three weeks after application
How it was run: as §3

Italian ryegrass [19] = assay: Test Example 5: herbicidal effect by foliage application, plastic box (Table 20, symbol K); format: in vivo, Italian ryegrass (Lolium multiflorum); conditions: foliage application, AAH 320 g/ha, evaluated three weeks after application
How it was run: as §3

windgrass [20] = assay: Test Example 5: herbicidal effect by foliage application, plastic box (Table 20, symbol L); format: in vivo, windgrass (Apera spica-venti); conditions: foliage application, AAH 320 g/ha, evaluated three weeks after application
How it was run: as §3

velvetleaf [21] = assay: Test Example 5: herbicidal effect by foliage application, plastic box (Table 20, symbol M); format: in vivo, velvetleaf (Abutilon theophrasti); conditions: foliage application, AAH 320 g/ha, evaluated three weeks after application
How it was run: as §3

redroot pigweed [22] = assay: Test Example 5: herbicidal effect by foliage application, plastic box (Table 20, symbol N); format: in vivo, redroot pigweed (Amaranthus retroflexus); conditions: foliage application, AAH 320 g/ha, evaluated three weeks after application
How it was run: as §3

lambsquarters [23] = assay: Test Example 5: herbicidal effect by foliage application, plastic box (Table 20, symbol O); format: in vivo, lambsquarters (Chenopodium album); conditions: foliage application, AAH 320 g/ha, evaluated three weeks after application
How it was run: as §3

chickweed [24] = assay: Test Example 5: herbicidal effect by foliage application, plastic box (Table 20, symbol P); format: in vivo, common chickweed (Stellaria media); conditions: foliage application, AAH 320 g/ha, evaluated three weeks after application
How it was run: as §3

false cleavers = assay: Test Example 5: herbicidal effect by foliage application, plastic box (Table 20, symbol Q); format: in vivo, false cleavers (Galium spurium); conditions: foliage application, AAH 320 g/ha, evaluated three weeks after application
How it was run: as §3

persian speedwell [25] = assay: Test Example 5: herbicidal effect by foliage application, plastic box (Table 20, symbol R); format: in vivo, Persian speedwell (Veronica persica); conditions: foliage application, AAH 320 g/ha, evaluated three weeks after application
How it was run: as §3

## Cc1nn(C)c(=O)c(-c2c(-c3ccc(OC(F)F)cc3)sc3ccc(F)cc23)c1OS(=O)(=O)C(C)C [2-309]
Barnyard grass [1]
  herbicidal effect on H: barnyard grass: 5 (Herbicidal rate of 90% or more (almost completely withered))
Chinese sprangletop
  herbicidal effect on D: Chinese sprangletop: 3 (Herbicidal rate of 40% or more and less than 70%)
Rice flat sedge
  herbicidal effect on E: rice flat sedge: 5 (Herbicidal rate of 90% or more (almost completely withered))
Southern crabgrass [2]
  herbicidal effect on F: southern crabgrass: 0 (Herbicidal rate of 5% or less (almost no effect))
Green foxtail [3]
  herbicidal effect on G: green foxtail: 0 (Herbicidal rate of 5% or less (almost no effect))
Barnyard grass [4]
  herbicidal effect on H: barnyard grass: 0 (Herbicidal rate of 5% or less (almost no effect))
Wild oat [5]
  herbicidal effect on I: wild oat: 0 (Herbicidal rate of 5% or less (almost no effect))
Blackgrass [6]
  herbicidal effect on J: blackgrass: 0 (Herbicidal rate of 5% or less (almost no effect))
Italian ryegrass [7]
  herbicidal effect on K: Italian ryegrass: 0 (Herbicidal rate of 5% or less (almost no effect))
Windgrass [8]
  herbicidal effect on L: windgrass: 0 (Herbicidal rate of 5% or less (almost no effect))
Velvetleaf [9]
  herbicidal effect on M: velvetleaf: 1 (Herbicidal rate of 5% or more and less than 20%)
Redroot pigweed [10]
  herbicidal effect on N: redroot pigweed: 5 (Herbicidal rate of 90% or more (almost completely withered))
Lambsquarters [11]
  herbicidal effect on O: lambsquarters: 4 (Herbicidal rate of 70% or more and less than 90%)
Chickweed [12]
  herbicidal effect on P: chickweed: 3 (Herbicidal rate of 40% or more and less than 70%)
Persian speedwell [13]
  herbicidal effect on R: persian speedwell: 5 (Herbicidal rate of 90% or more (almost completely withered))
Southern crabgrass [14]
  F: southern crabgrass, herbicidal effect (criteria 0-5): 0 (Herbicidal rate of 5% or less (almost no effect))
Green foxtail [15]
  G: green foxtail, herbicidal effect (criteria 0-5): 5 (Herbicidal rate of 90% or more (almost completely withered))
Barnyard grass [16]
  H: barnyard grass, herbicidal effect (criteria 0-5): 5 (Herbicidal rate of 90% or more (almost completely withered))
Wild oat [17]
  I: wild oat, herbicidal effect (criteria 0-5): 1 (Herbicidal rate of 5% or more and less than 20%)
Blackgrass [18]
  J: blackgrass, herbicidal effect (criteria 0-5): 3 (Herbicidal rate of 40% or more and less than 70%)
Italian ryegrass [19]
  K: Italian ryegrass, herbicidal effect (criteria 0-5): 4 (Herbicidal rate of 70% or more and less than 90%)
Windgrass [20]
  L: windgrass, herbicidal effect (criteria 0-5): 1 (Herbicidal rate of 5% or more and less than 20%)
Velvetleaf [21]
  M: velvetleaf, herbicidal effect (criteria 0-5): 5 (Herbicidal rate of 90% or more (almost completely withered))
Redroot pigweed [22]
  N: redroot pigweed, herbicidal effect (criteria 0-5): 5 (Herbicidal rate of 90% or more (almost completely withered))
Lambsquarters [23]
  O: lambsquarters, herbicidal effect (criteria 0-5): 5 (Herbicidal rate of 90% or more (almost completely withered))
Chickweed [24]
  P: chickweed, herbicidal effect (criteria 0-5): 5 (Herbicidal rate of 90% or more (almost completely withered))
False cleavers
  Q: false cleavers, herbicidal effect (criteria 0-5): 4 (Herbicidal rate of 70% or more and less than 90%)
Persian speedwell [25]
  R: persian speedwell, herbicidal effect (criteria 0-5): 5 (Herbicidal rate of 90% or more (almost completely withered))
